From patent US20180140572A1, “COMPOSITIONS COMPRISING A CANCER STEMNESS INHIBITOR AND AN IMMUNOTHERAPEUTIC AGENT FOR USE IN TREATING CANCER” (Boston Biomedical, Inc., priority 2015, published 2018) come the findings set out here.

Assay [1] concerns p-STAT3. In words: p-STAT3 staining of CT26 tumors after treatment. The following applies: vs control group. In kind it is in vivo, mouse. From the text: (§1) All BALB/c mice (Taconic, Hudson, N.Y., USA) were housed in Association for Assessment and Accreditation of Laboratory Animal Care approved facilities in static microisolator cages. Murine MSS-status colon carcinoma CT26 cells (ATCC CRL-2639) and murine breast carcinoma cells 4T1 (ATCC CRL-2539) were purchased from American Type Culture Collection (ATCC, Manassas, Va., USA), and grown in RPMI-1640 medium (ATCC) supplemented with 10% heat-inactivated fetal calf serum. After harvesting during exponential growth, tumors were initiated by subcutaneously implanting 3×10^5 CT26 tumor cells into the right dorsal flank of each 8-12 week old female BALB/c mouse. […] Body weight and clinical signs were monitored throughout the course of the treatment in accordance with the Institutional Animal Care and Use Committee approved protocols. Drug efficacy was analyzed by measuring tumor volume in mm^3 calculated by multiplying 0.5×width^2×length. […]
(§2) At the end of treatment, tumors were harvested from euthanized mice. […] After mounting in ProLong mounting medium containing DAPI (Invitrogen), the slides were examined on a Zeiss Axio Imager M2 upright fluorescence microscope with a 20× objective and analyzed with Zen software.

In assay [2] the test system is IL-6 and other STAT3 target genes. Nature of the assay: STAT3 target gene expression in HeLa cells. In kind it is cell-based.
Assay [3] relates to PD-L1. Nature of the assay: PD-L1 expression in tumor cells in the CT26 model. The assay is classed as in vivo, mouse.
Excerpt: as §1, §2

Assay [4] concerns PD-L1. Nature of the assay: IFNγ-induced PD-L1 expression in CT26 cells (Western blotting). In kind it is cell-based, mouse. The settings on record: 100 ng/ml IFNγ, 24 hours, 1 μM BBI608. As to the method:
3×10^5 CT26 cells in 6-well plated were treated with 100 ng/ml IFNγ for 24 hours at the presence of control DMSO or 1 μM BBI608. Cells were washed twice with ice-cold PBS and lysed in lysis buffer [50 mM Hepes (pH 7.5), 1% Nonidet P-40, 150 mM NaCl, 1 mM EDTA, and 1× protease and phosphatase inhibitor mixture (EMD Millipore)]. Soluble protein (20 μg) was separated by SDS/PAGE and transferred to nitrocellulose membranes. Primary antibodies against P-STAT3 (Y705), PD-L1, and ACTIN (Sigma) were used in this study. The antigen-antibody complexes were visualized by enhanced chemiluminescence (BioRad).

For assay [5], the system named is B-cell proliferation. In words: B-cell proliferation in lymph node adjacent to xenograft B16F10 tumor (PCNA staining). In kind it is in vivo, mouse. From the text:
The tissues were stained with PCNA.

With `CC(=O)c1cc2c(o1)C(=O)c1ccccc1C2=O` [BBI608, 2-acetylnaphtho[2,3-b]furan-4,9-dione], the “p-STAT3 level in CT26 tumors” value in assay [1] is recorded as “reduced p-STAT3 levels”. The “IL-6 and other STAT3 target genes expression” value in assay [2] is listed as “downregulated”. In assay [3], the “PD-L1 expression in tumor cells” value is recorded as “reduced”. Also, in assay [4], the “IFNγ-induced PD-L1 expression” value was “reduced”. For the same compound, the “B-cell proliferation in lymph node adjacent to tumor” value in assay [5] was “multiple centers of B-cell proliferation”.
